Biological target: G-protein coupled receptor 52 (Homo sapiens, UniProt Q9Y2T5)
Assay: Homogeneous Time-Resolved Fluorescence (HTRF) Assay
Procedure: HTRF cAMP assays were performed using commercially available assay kits according to the manufacturer's instructions (cAMP Dynamic 2 Assay Kit; #62AM4PEJ, Cisbio Bioassays, Bedford, MA). An aliquot of CHO-K1 cells stably expressing recombinant human GPR52 was thawed and resuspended in cell buffer (1×PBS (w/o Ca2+/Mg2+)) at a density of 4×10^5 cells per mL. Test compounds were solubilized in DMSO to 10 mM stock solutions and serially diluted in DMSO using 6-fold dilutions to generate 8-point dose response curves. These serially diluted samples were then diluted 1:50 in compound dilution buffer (1×PBS (w/o Ca2+/Mg2+) containing 0.5 mM IBMX, 0.1% BSA) to achieve a 4× stock. The diluted compounds were transferred (5 μL per well) in duplicate to the 384-well assay plate (Optiplate #6007290, PerkinElmer, Waltham, MA). Both a positive (reference compound) and negative (non-stimulated vehicle) control was included in each assay run in column 23. The cell suspension was subsequently dispensed into the 384-well assay plates at 15 μL per well (6000 cells) such that the compound was diluted to 1×. […] After a one-hour incubation at room temperature, 10 μL of cAMP D2 reagent followed by 10 μL of cryptate reagent (provided in the Cisbio kit) was added to each well. Plates were then incubated at room temperature for one hour prior to reading. Time-resolved fluorescence measurements were collected on an EnVision HTRF plate reader (PerkinElmer, Waltham, MA).

G-protein coupled receptor 52, sequence (Q9Y2T5 whole entry): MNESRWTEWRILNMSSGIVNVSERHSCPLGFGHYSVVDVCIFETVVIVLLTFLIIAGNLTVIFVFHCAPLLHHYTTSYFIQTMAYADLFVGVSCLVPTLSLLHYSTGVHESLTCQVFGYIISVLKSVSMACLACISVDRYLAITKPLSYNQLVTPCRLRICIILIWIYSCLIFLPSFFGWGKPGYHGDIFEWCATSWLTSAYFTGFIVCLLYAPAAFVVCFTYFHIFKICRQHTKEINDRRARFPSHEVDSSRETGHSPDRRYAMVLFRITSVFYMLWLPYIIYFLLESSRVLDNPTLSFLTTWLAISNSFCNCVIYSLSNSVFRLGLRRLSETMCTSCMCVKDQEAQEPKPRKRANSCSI

Structure (SMILES) | EC50
CC(=O)N1C[C@@H](NC(=O)c2nccnc2N2CC(Oc3ccc(F)c(F)c3)C2)C(F)(F)C1 [US12115157, Ex. 8a] | 1090 nM
CC(=O)N1C[C@H](NC(=O)c2nccnc2N2CC(Oc3ccc(F)c(F)c3)C2)C(F)(F)C1 [US12115157, Ex. 8b] | 7 nM
CC(=O)N1C[C@@H](NC(=O)c2nccnc2N2CC(Oc3cc(F)c(F)c(F)c3)C2)C(F)(F)C1 [US12115157, Ex. 11a] | 1280 nM
CC(=O)N1C[C@H](NC(=O)c2nccnc2N2CC(Oc3cc(F)c(F)c(F)c3)C2)C(F)(F)C1 [US12115157, Ex. 11b] | 10 nM
CC(=O)N1C[C@@H](NC(=O)c2nsnc2N2CC(Oc3ccc(F)c(F)c3)C2)C(F)(F)C1 [US12115157, Ex. 13a] | 595 nM
CC(=O)N1C[C@H](NC(=O)c2nsnc2N2CC(Oc3ccc(F)c(F)c3)C2)C(F)(F)C1 [US12115157, Ex. 13b] | 3 nM

From BindingDB's records for patent US12115157 (Boehringer Ingelheim International, 2024)
